Data: patent publication US8859496B2, “Pharmaceutical composition using connective-tissue growth factor” (Postech Academy-Industry Foundation, priority 2010, dated 2014)
No end group written: not given here.

How the values were obtained:
Format in all cases: cell-based, human
[1] = test system: HUVECs; experiment: Intracellular Ca2+ concentration in HUVECs
Experimental: FPRL1/RBL, vector/RBL or FPR/RBL cells were cultured in a fluo-3-AM working solution containing 0.03% (w/v) plutonic F-127 (Molecular Probes) at 37° C. for 1 hour so that the final concentration of fluo-3-AM became 20 uM/L. After the culturing, fluo-3-AM fluorescence occurred at 488 nm with high-power Ar^+ laser in the cells, and the emission band was measured at 530 nm with photomultiplier. Fluorescence signal was detected using confocal laser scanning system (LSM 510 Meta; Carl Zeiss, Jena, Germany) equipped with Nikon E-600 Eclipse microscope. Fluorescence intensities before adding CTGF (F0) and after adding CTGF (F) were measured. Change in the intracelullar Ca^2+ concentration [Ca^2+]i was indicated by F/F0 ratio. From each cell, 50 to 120 images were scanned.
And, HUVECs were treated with the CTGF linker polypeptide or rhCTGF at various concentrations for 1 hour, it was confirmed whether intracellular Ca^2+ concentration increases by the above method, and the results are shown in FIG. 15.

[2] = test system: HUVECs; experiment: HUVEC proliferation assay ([3H]-thymidine)
Experimental: For proliferation assay, HUVECs were plate cultured in a gelatin-coated 24-well culture dish at 2×10^4 cells/well and allowed to adhere overnight. 4 hours after serum was depleted, the cells were treated with various mitogen (CTGF linker polypeptide, CTGF) for 48 hours. [^3H]-thymidine (1 μCi, Amersham International) was added to each well 6 hours before final culture. The inserted [^3H]-thymidine was extracted in 0.2 M NaOH and 0.1% SDS solution at 37° C. for 1 hour. Radioactivity was measured using liquid scintillation counter (Beckmann Instruments), which was repeated three times, and the result was indicated by mean±standard deviation per minute.
(§1) First, 20 ng/ml of VEGF-A was administered to HUVECs, the degree of cell proliferation, cell migration, or tube formation was confirmed by the <Experiment method 9>, and the results are shown in FIGS. 22 to 24. At this time, FPRL1 antagonist WRW4 was additionally added.

[3] = test system: HUVECs; experiment: HUVEC wound migration assay
Experimental: Specifically, HUVECs inoculated on a 60-mm culture dish to confluence were wounded with the end of a pipette, and treated with linker polypeptide (10^−1˜10^2 nM) or recombinant CTGF (recombinant human CTGF, rhCTGF; BioVendor R&D, NC, USA) (10^1 or 10^2 nM) in Medium 199 to which 1% serum and 1 mM thymidine were added. After culturing 16 hours, the number of cells that migrated over a reference line was counted to quantify the degree of migration, and the cells were photographed with 50× magnification.
as §1

EWVCDEPKDQTVVGPALAAYRLEDTFGPDPTMIRANCLV (EWVCDEPKDQTVVGPALAAYRLEDTFGPDPTMIRANCLV-NH2; cysteine pairing not given here) [CTGF linker polypeptide]
intracellular Ca2+ concentration in HUVECs ([1]; various concentrations, 1 hour): increases intracellular Ca^2+ concentration in a concentration-dependent manner | proliferation of HUVECs ([2]; 48 hours, [3H]-thymidine): induces proliferation of HUVECs in a concentration-dependent manner, the degree is not statistically significant | migration of HUVECs ([3]; linker polypeptide 10^-1 to 10^2 nM, 16 hours, compared to recombinant CTGF): induces migration of HUVECs in a concentration-dependent manner more effectively than recombinant CTGF

WRWWWW (FPRL1 antagonist) [WRW4]
effect of antagonist on Ca2+ increase by CTGF linker polypeptide in HUVECs ([1]; WRW4 10 uM): that's not the case when the cells are treated with FPRL1 antagonist WRW4 | effect of antagonist on HUVEC proliferation by VEGF-A ([2]; VEGF-A 20 ng/ml plus WRW4): did not exhibit statistically significant inhibition of HUVECs proliferation by VEGF-A | effect of antagonist on HUVEC migration induced by VEGF-A ([3]; VEGF-A 20 ng/ml, WRW4 10 uM): the cell migration is not induced | effect of antagonist on HUVEC migration induced by CTGF linker polypeptide ([3]; WRW4 10 uM): the cell migration is not induced
